From PubChem BioAssay (NCI)
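GI50: concentration for 50% inhibition of growth. Definition used: TGI = concentration required for complete inhibition of growth.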

Experiments:
Experiment in all cases: DTP human tumour cell line panel, 384-well format
PC-3 prostate = system: PC-3 prostate
IGROV1 ovarian = system: IGROV1 ovarian
BT-549 breast = system: BT-549 breast
M14 melanoma = system: M14 melanoma
A498 renal = system: A498 renal
786-0 renal = system: 786-0 renal
NCI-H460 NSCLC = system: NCI-H460 NSCLC
HCT-116 colon = system: HCT-116 colon
HOP-62 NSCLC = system: HOP-62 NSCLC
MCF7 breast = system: MCF7 breast
HCT-15 colon = system: HCT-15 colon
MDA-MB-468 breast = system: MDA-MB-468 breast
UACC-62 melanoma = system: UACC-62 melanoma
K-562 leukemia = system: K-562 leukemia
KM12 colon = system: KM12 colon
OVCAR-3 ovarian = system: OVCAR-3 ovarian
SK-MEL-28 melanoma = system: SK-MEL-28 melanoma
DU-145 prostate = system: DU-145 prostate
T-47D breast = system: T-47D breast
HOP-92 NSCLC = system: HOP-92 NSCLC
UACC-257 melanoma = system: UACC-257 melanoma
ACHN renal = system: ACHN renal
SK-MEL-5 melanoma = system: SK-MEL-5 melanoma
COLO 205 colon = system: COLO 205 colon
SK-OV-3 ovarian = system: SK-OV-3 ovarian
SF-539 CNS = system: SF-539 CNS
A549 NSCLC = system: A549 NSCLC
HL-60(TB) leukemia = system: HL-60(TB) leukemia
SK-MEL-2 melanoma = system: SK-MEL-2 melanoma
TK-10 renal = system: TK-10 renal
MALME-3M melanoma = system: MALME-3M melanoma
HT29 colon = system: HT29 colon
NCI-H322M lung = system: NCI-H322M lung
OVCAR-8 ovarian = system: OVCAR-8 ovarian
HCC-2998 colon = system: HCC-2998 colon
OVCAR-4 ovarian = system: OVCAR-4 ovarian
NCI-H226 lung = system: NCI-H226 lung
MDA-MB-231 breast = system: MDA-MB-231 breast
NCI/ADR-RES ovarian = system: NCI/ADR-RES ovarian
RXF 393 renal = system: RXF 393 renal
CCRF-CEM leukemia = system: CCRF-CEM leukemia
RPMI-8226 leukemia = system: RPMI-8226 leukemia
SR leukemia = system: SR leukemia
MOLT-4 leukemia = system: MOLT-4 leukemia
LOX IMVI melanoma = system: LOX IMVI melanoma
SF-268 CNS = system: SF-268 CNS
SW-620 colon = system: SW-620 colon
U251 glioblastoma = system: U251 glioblastoma
NCI-H23 lung = system: NCI-H23 lung
OVCAR-5 ovarian = system: OVCAR-5 ovarian
SNB-19 CNS = system: SNB-19 CNS
NCI-H522 lung = system: NCI-H522 lung
UO-31 renal = system: UO-31 renal
SN12C renal = system: SN12C renal
CAKI-1 renal = system: CAKI-1 renal
MDA-MB-435 melanoma = system: MDA-MB-435 melanoma
SF-295 CNS = system: SF-295 CNS

## COc1ccc(-c2ccc3ncc4c(c3c2)n(-c2ccc(N3CCNCC3)c(C(F)(F)F)c2)c(=O)n4C)cn1
PC-3 prostate
  GI50: < 10 nM
  TGI: 106 nM
IGROV1 ovarian
  GI50: < 10 nM
  TGI: < 10 nM
BT-549 breast
  GI50: < 10 nM
  TGI: 17.2 nM
M14 melanoma
  GI50: < 10 nM
  TGI: 64.9 nM
A498 renal
  GI50: < 10 nM
  TGI: < 10 nM
786-0 renal
  GI50: < 10 nM
  TGI: 151 nM
NCI-H460 NSCLC
  GI50: < 10 nM
  TGI: 83.3 nM
HCT-116 colon
  GI50: < 10 nM
  TGI: 130 nM
HOP-62 NSCLC
  GI50: < 10 nM
  TGI: 21.6 nM
MCF7 breast
  GI50: < 10 nM
  TGI: 120 nM
HCT-15 colon
  GI50: < 10 nM
  TGI: 129 nM
MDA-MB-468 breast
  GI50: < 10 nM
  TGI: < 10 nM
UACC-62 melanoma
  GI50: < 10 nM
  TGI: 28.3 nM
K-562 leukemia
  GI50: < 10 nM
  TGI: 124 nM
KM12 colon
  GI50: < 10 nM
  TGI: 141 nM
OVCAR-3 ovarian
  GI50: < 10 nM
  TGI: 96 nM
SK-MEL-28 melanoma
  GI50: < 10 nM
  TGI: 42 nM
DU-145 prostate
  GI50: < 10 nM
  TGI: 128 nM
T-47D breast
  GI50: < 10 nM
  TGI: < 10 nM
HOP-92 NSCLC
  GI50: < 10 nM
  TGI: 19.1 nM
UACC-257 melanoma
  GI50: 11.7 nM
  TGI: 51.5 nM
ACHN renal
  GI50: < 10 nM
  TGI: 43.8 nM
SK-MEL-5 melanoma
  GI50: < 10 nM
  TGI: 13.8 nM
COLO 205 colon
  GI50: < 10 nM
  TGI: 21.7 nM
SK-OV-3 ovarian
  GI50: < 10 nM
  TGI: < 10 nM
SF-539 CNS
  GI50: < 10 nM
  TGI: 26.3 nM
A549 NSCLC
  GI50: < 10 nM
  TGI: 25.4 nM
HL-60(TB) leukemia
  GI50: 15.5 nM
  TGI: 111 nM
SK-MEL-2 melanoma
  GI50: < 10 nM
  TGI: 36.5 nM
TK-10 renal
  GI50: < 10 nM
  TGI: 50.6 nM
MALME-3M melanoma
  GI50: < 10 nM
  TGI: < 10 nM
HT29 colon
  GI50: < 10 nM
  TGI: 135 nM
NCI-H322M lung
  GI50: < 10 nM
  TGI: 109 nM
OVCAR-8 ovarian
  GI50: < 10 nM
  TGI: 124 nM
HCC-2998 colon
  GI50: < 10 nM
  TGI: 103 nM
OVCAR-4 ovarian
  GI50: < 10 nM
  TGI: < 10 nM
NCI-H226 lung
  GI50: < 10 nM
  TGI: 32.5 nM
MDA-MB-231 breast
  GI50: < 10 nM
  TGI: 158 nM
NCI/ADR-RES ovarian
  GI50: 107 nM
  TGI: 226 nM
RXF 393 renal
  GI50: < 10 nM
  TGI: 19.3 nM
CCRF-CEM leukemia
  GI50: < 10 nM
  TGI: 13.6 nM
RPMI-8226 leukemia
  GI50: < 10 nM
  TGI: < 10 nM
SR leukemia
  GI50: < 10 nM
  TGI: < 10 nM
MOLT-4 leukemia
  GI50: < 10 nM
  TGI: < 10 nM
LOX IMVI melanoma
  GI50: < 10 nM
  TGI: 49 nM
SF-268 CNS
  GI50: < 10 nM
  TGI: 131 nM
SW-620 colon
  GI50: < 10 nM
  TGI: 122 nM
U251 glioblastoma
  GI50: < 10 nM
  TGI: 134 nM
NCI-H23 lung
  GI50: 11.4 nM
  TGI: 82 nM
OVCAR-5 ovarian
  GI50: < 10 nM
  TGI: 105 nM
SNB-19 CNS
  GI50: < 10 nM
  TGI: 192 nM
NCI-H522 lung
  GI50: < 10 nM
  TGI: 50.9 nM
UO-31 renal
  GI50: < 10 nM
  TGI: 16.7 nM
SN12C renal
  GI50: < 10 nM
  TGI: 154 nM
CAKI-1 renal
  GI50: < 10 nM
  TGI: 14.9 nM
MDA-MB-435 melanoma
  GI50: < 10 nM
  TGI: 34 nM
SF-295 CNS
  GI50: < 10 nM
  TGI: 10.5 nM
